Data taken from ChEMBL document CHEMBL6120956, “Discovery of a Potent, Orally Active, and Long-Lasting P2X7 Receptor Antagonist as a Preclinical Candidate for Delaying the Progression of Chronic Kidney Disease” (J Med Chem, 2024).
Calls of active or inactive are those of the source. The calls are words filed in the database; no cut-off is given here.

Experiments:
[1] = Clearance in male BALB/c mouse at 10 mg/kg, po single administration measured upto 72 hrs by LC-MS/MS analysis; assay type: ADME, organism-based; conditions: in vivo
[2] = Cmax in male BALB/c mouse at 10 mg/kg, po single administration measured upto 72 hrs by LC-MS/MS analysis; assay type: ADME, organism-based; conditions: in vivo
[3] = AUC (0 to t) in male BALB/c mouse at 10 mg/kg, po single administration measured upto 72 hrs by LC-MS/MS analysis; assay type: ADME, organism-based; conditions: in vivo
[4] = Metabolic stability in mouse liver microsomes assessed as half life; assay type: ADME, Microsome
[5] = Metabolic stability in human liver microsomes assessed as clearance; assay type: ADME, Microsome; conditions: read-out: CLH
[6] = Tmax in male BALB/c mouse at 10 mg/kg, po single administration measured upto 72 hrs by LC-MS/MS analysis; assay type: ADME, organism-based; conditions: in vivo
P2X purinoceptor 7 = biological target: T1, P2X purinoceptor 7 (Mus musculus, UniProt Q9Z1M0); test: Antagonist activity against mouse P2X7 receptor expressed in ATP-stimulated HEK293 cells assessed as influx of PI by fluorescence dye uptake assay relative to control; assay type: cell-based
T1 sequence (Q9Z1M0 whole entry): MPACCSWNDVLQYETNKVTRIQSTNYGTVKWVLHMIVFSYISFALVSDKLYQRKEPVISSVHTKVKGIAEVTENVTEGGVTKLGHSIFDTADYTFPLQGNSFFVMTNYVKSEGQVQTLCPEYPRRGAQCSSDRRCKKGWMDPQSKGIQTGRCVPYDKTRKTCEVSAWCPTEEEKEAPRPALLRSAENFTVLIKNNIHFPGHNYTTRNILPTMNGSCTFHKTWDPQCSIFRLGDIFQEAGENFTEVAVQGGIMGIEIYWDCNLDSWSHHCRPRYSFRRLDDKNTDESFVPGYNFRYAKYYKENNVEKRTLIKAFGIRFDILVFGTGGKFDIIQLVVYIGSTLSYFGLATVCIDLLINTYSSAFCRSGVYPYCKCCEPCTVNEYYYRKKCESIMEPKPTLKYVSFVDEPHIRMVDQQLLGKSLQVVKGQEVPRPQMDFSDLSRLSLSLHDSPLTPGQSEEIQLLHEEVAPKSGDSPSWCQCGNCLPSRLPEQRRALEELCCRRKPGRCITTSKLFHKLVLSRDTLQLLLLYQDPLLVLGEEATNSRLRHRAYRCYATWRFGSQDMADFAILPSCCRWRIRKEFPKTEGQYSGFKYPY

[7] = Metabolic stability in mouse liver microsomes assessed as clearance; assay type: ADME, Microsome; conditions: read-out: CLH
[8] = Metabolic stability in human liver microsomes assessed as half life; assay type: ADME, Microsome
[9] = Half life in male BALB/c mouse at 10 mg/kg, po single administration measured upto 72 hrs by LC-MS/MS analysis; assay type: ADME, organism-based; conditions: in vivo
[10] = biological target: T2, P2X purinoceptor 7 (Mus musculus) (UniProt Q9Z1M0); test: Antagonist activity against mouse P2X7 receptor expressed in ATP-stimulated HEK293 cells assessed as influx of PI at 200 nM by fluorescence dye uptake assay relative to control; assay type: cell-based; set-up: scale not given: the % may be the effect or the level left
T2 sequence (whole entry): T1 sequence (Q9Z1M0 whole entry)

[11] = biological target: T2, P2X purinoceptor 7 (Mus musculus); test: Antagonist activity against mouse P2X7 receptor expressed in ATP-stimulated HEK293 cells assessed as influx of PI at 1 uM by fluorescence dye uptake assay relative to control; assay type: cell-based; set-up: scale not given: the % may be the effect or the level left

A CL/F [1] of 11.8 mL/min/kg, a Cmax [2] of 2230 ng/mL and an AUC(0-t) at 72 h [3] of 14100 ng·h/mL were found for `CS(=O)(=O)c1ccc(-c2ncc(C(=O)NCc3cn(-c4cc(C(F)(F)F)ccn4)nn3)s2)cc1` in this work. It also gave a half-life [4] greater than 2 h, a CLint scaled [5] of less than 12 mL/min/kg and a Tmax [6] of 2 h. For the same compound, the IC50 (P2X purinoceptor 7) was 80.6 nM, the CLint scaled [7] was 22.8 mL/min/kg and the half-life [8] was greater than 2 h. It also gave a half-life [9] of 3.35 h.
A half-life [4] of 0.547 h, a CLint scaled [5] of 13.8 mL/min/kg and an IC50 (P2X purinoceptor 7) of 55.5 nM were found for `CS(=O)(=O)c1ccc(-c2nc(C(=O)NCc3cn(-c4cc(NC5CC(F)(F)C5)ccn4)nn3)cs2)cc1` in this work. It also gave a CLint scaled [7] of 166 mL/min/kg and a half-life [8] greater than 2 h.
An Activity [10] of 27.1% and an Activity [11] of 37% were found for `CS(=O)(=O)c1ccc(-c2nc(C(=O)NCc3cn(-c4cc(-c5ccc(C(F)(F)F)cc5)ccn4)nn3)cs2)cc1` in this work.
With `CS(=O)(=O)c1ccc(-c2nc(C(=O)NCc3cn(-c4ccc(Cl)cn4)nn3)cs2)cc1` the Activity [10] was “inactive” and the Activity [11] was “inactive”.
An IC50 (P2X purinoceptor 7) of 449 nM was found for `CS(=O)(=O)c1ccc(-c2nc(C(=O)NCc3cn(-c4cc(-c5cccc(C(F)(F)F)c5)ccn4)nn3)cs2)cc1` in this work.
An Activity [10] of 15.6% and an Activity [11] of 50% were found for `CS(=O)(=O)c1ccc(-c2nc(C(=O)NCc3cn(-c4cccc(Br)n4)nn3)cs2)cc1` in this work.
A CL/F [1] of 1.5 mL/min/kg, a Cmax [2] of 3230 ng/mL and an AUC(0-t) at 72 h [3] of 107000 ng·h/mL were found for `C[C@H](NC(=O)c1csc(-c2ccc(S(C)(=O)=O)cc2)n1)c1cn(-c2cc(C(F)(F)F)ccn2)nn1` in this work. It also gave a half-life [4] greater than 2 h, a CLint scaled [5] of less than 12 mL/min/kg and a Tmax [6] of 7.33 h. The IC50 (P2X purinoceptor 7) was 98.6 nM, the CLint scaled [7] was less than 12 mL/min/kg and the half-life [8] was greater than 2 h. It also gave a half-life [9] of 7.38 h.
An Activity [10] of 10.7% and an Activity [11] of 45% were found for `CS(=O)(=O)c1ccc(-c2ncc(C(=O)NCc3cn(-c4cccc(Br)n4)nn3)s2)cc1` in this work.
An Activity [10] of 13.3% and an Activity [11] of 27.4% were found for `CS(=O)(=O)c1ccc(-c2ncc(C(=O)NCc3cn(-c4cc(-c5cccc(C(F)(F)F)c5)ccn4)nn3)s2)cc1` in this work.
An Activity [10] of 90.7% and an Activity [11] of 96.3% were found for `Clc1cccc(-n2nnnc2NCc2ccccc2Oc2ccccn2)c1Cl` in this work.
An Activity [10] of 35% and an Activity [11] of 42.8% were found for `CS(=O)(=O)c1ccc(-c2ncc(C(=O)NCc3cn(-c4ccc(Br)nc4)nn3)s2)cc1` in this work.
An Activity [10] of 30.7% and an Activity [11] of 44.4% were found for `Cc1ccnc(-n2cc(CNC(=O)c3cnc(-c4ccc(S(C)(=O)=O)cc4)s3)nn2)c1` in this work.
An Activity [10] of 6% and an Activity [11] of 20.2% were found for `COc1ccnc(-n2cc(CNC(=O)c3csc(-c4ccc(S(C)(=O)=O)cc4)n3)nn2)c1` in this work.
An Activity [10] of 28.7% and an Activity [11] of 11.4% were found for `CS(=O)(=O)c1ccc(-c2nc(C(=O)NCc3cn(-c4cc(Nc5cnn(C(F)F)c5)ccn4)nn3)cs2)cc1` in this work.
A half-life [4] of 0.987 h, a CLint scaled [5] of 21.8 mL/min/kg and an IC50 (P2X purinoceptor 7) of 61 nM were found for `CS(=O)(=O)c1ccc(-c2ncc(C(=O)NCc3cn(-c4cc(N5CCC(F)(F)CC5)ccn4)nn3)s2)cc1` in this work. The CLint scaled [7] was 92.1 mL/min/kg and the half-life [8] was 1.33 h.
A half-life [4] of 0.333 h, a CLint scaled [5] of 54.2 mL/min/kg and an IC50 (P2X purinoceptor 7) of 103 nM were found for `CS(=O)(=O)c1ccc(-c2nc(C(=O)NCc3cn(-c4cc(N5CCC(F)(F)CC5)ccn4)nn3)cs2)cc1` in this work. The CLint scaled [7] was 273 mL/min/kg and the half-life [8] was 0.535 h.
An Activity [10] of 26.6% and an Activity [11] of 32.5% were found for `CS(=O)(=O)c1ccc(-c2ncc(C(=O)NCc3cn(-c4cc(Nc5cnn(C(F)F)c5)ccn4)nn3)s2)cc1` in this work.
An Activity [10] of 17.7% and an Activity [11] of 23.9% were found for `CS(=O)(=O)c1ccc(-c2nc(C(=O)NCc3cn(-c4cncc(Br)c4)nn3)cs2)cc1` in this work.
A CL/F [1] of 3.33 mL/min/kg, a Cmax [2] of 4530 ng/mL and an AUC(0-t) at 72 h [3] of 49800 ng·h/mL were found for `CS(=O)(=O)c1ccc(-c2nc(C(=O)NCc3cn(-c4cc(C(F)(F)F)ccn4)nn3)cs2)cc1` in this work. For the same compound, the half-life [4] was greater than 2 h, the CLint scaled [5] was less than 12 mL/min/kg and the Tmax [6] was 1.83 h. The IC50 (P2X purinoceptor 7) was 70.2 nM, the CLint scaled [7] was less than 12 mL/min/kg and the half-life [8] was greater than 2 h. The half-life [9] was 4.08 h.
With `CS(=O)(=O)c1ccc(-c2ncc(C(=O)NCc3cn(-c4ccnc(Br)c4)nn3)s2)cc1` the Activity [10] was “inactive” and the Activity [11] was “inactive”.
With `CS(=O)(=O)c1ccc(-c2nc(C(=O)NCc3cn(-c4ccnc(Br)c4)nn3)cs2)cc1` the Activity [10] was “inactive” and the Activity [11] was “inactive”.
In the case of `COc1ccnc(-n2cc(CNC(=O)c3cnc(-c4ccc(S(C)(=O)=O)cc4)s3)nn2)c1`, the Activity [10] is reported as “inactive” and the Activity [11] is reported as 9.9%.
In the case of `CS(=O)(=O)c1ccc(-c2ncc(C(=O)NCc3cn(-c4ccc(Cl)cn4)nn3)s2)cc1`, the Activity [10] is reported as “inactive” and the Activity [11] is reported as 28.1%.
An Activity [10] of 28.6% and an Activity [11] of 39.5% were found for `CS(=O)(=O)c1ccc(-c2nc(C(=O)NCc3cn(-c4ccncc4Br)nn3)cs2)cc1` in this work.
An Activity [10] of 25.9% and an Activity [11] of 41% were found for `CS(=O)(=O)c1ccc(-c2ncc(C(=O)NCc3cn(-c4ccncc4Br)nn3)s2)cc1` in this work.
An Activity [10] of 30.3% and an Activity [11] of 32.5% were found for `CS(=O)(=O)c1ccc(-c2nc(C(=O)NCc3cn(-c4cc(-c5cncc(C(F)(F)F)c5)ccn4)nn3)cs2)cc1` in this work.
A CL/F [1] of 25.8 mL/min/kg, a Cmax [2] of 1300 ng/mL and an AUC(0-t) at 72 h [3] of 6510 ng·h/mL were found for `CS(=O)(=O)c1ccc(-c2nc(C(=O)NCc3cn(-c4cc(Br)ccn4)nn3)cs2)cc1` in this work. The Tmax [6] was 1.17 h and the half-life [9] was 1.91 h.
An Activity [10] of 18.4% and an Activity [11] of 35.6% were found for `CS(=O)(=O)c1ccc(-c2ncc(C(=O)NCc3cn(-c4cc(-c5ccc(C(F)(F)F)s5)ccn4)nn3)s2)cc1` in this work.
A half-life [4] of 0.67 h, a CLint scaled [5] of less than 12 mL/min/kg and an IC50 (P2X purinoceptor 7) of 138 nM were found for `CS(=O)(=O)c1ccc(-c2ncc(C(=O)NCc3cn(-c4cc(NC5CC(F)(F)C5)ccn4)nn3)s2)cc1` in this work. It also gave a CLint scaled [7] of 142 mL/min/kg and a half-life [8] greater than 2 h.
An Activity [10] of 24.9% and an Activity [11] of 28.7% were found for `CS(=O)(=O)c1ccc(-c2nc(C(=O)NCc3cn(-c4cc(-c5ccc(C(F)(F)F)s5)ccn4)nn3)cs2)cc1` in this work.
In the case of `CS(=O)(=O)c1ccc(-c2ncc(C(=O)NCc3cn(-c4cc(-c5ccc(C(F)(F)F)cc5)ccn4)nn3)s2)cc1`, the Activity [10] is reported as “inactive” and the Activity [11] is reported as “inactive”.
An Activity [10] of 33.5% and an Activity [11] of 36.8% were found for `CS(=O)(=O)c1ccc(-c2ncc(C(=O)NCc3cn(-c4cncc(Br)c4)nn3)s2)cc1` in this work.
An Activity [10] of 13.3% and an Activity [11] of 48.4% were found for `CS(=O)(=O)c1ccc(-c2nc(C(=O)NCc3cn(-c4ccc(F)cn4)nn3)cs2)cc1` in this work.
An Activity [10] of 12.4% and an Activity [11] of 25.7% were found for `CS(=O)(=O)c1ccc(-c2ncc(C(=O)NCc3cn(-c4ccc(F)cn4)nn3)s2)cc1` in this work.
With `Cc1ccnc(-n2cc(CNC(=O)c3csc(-c4ccc(S(C)(=O)=O)cc4)n3)nn2)c1` the Activity [10] was “inactive” and the Activity [11] was 5.1%.
An Activity [10] of 42.8% and an Activity [11] of 49.6% were found for `CS(=O)(=O)c1ccc(-c2ncc(C(=O)NCc3cn(-c4cc(-c5cncc(C(F)(F)F)c5)ccn4)nn3)s2)cc1` in this work.
For `CS(=O)(=O)c1ccc(-c2nc(C(=O)NCc3cn(-c4ccc(Br)nc4)nn3)cs2)cc1`, the Activity [10] was “inactive” and the Activity [11] was 10%.
